Reference: patent publication US11414431B2, “Substituted pyrazolo[1,5-a]pyrimidines as TYK2 inhibitors” (Nimbus Lakshmi, Inc., priority 2018, dated 2022)

Target: human TYK2 (JH2domain-pseudokinase) (Homo sapiens (Human), UniProt P29597)
Experiment: TYK2 JH2 Domain Binding Assay (KINOMEscan)
Conditions: 11-point 3-fold dilution, top concentration 30,000 nM, duplicate; read-out: hTYK2_JH2_Binding (Kd; nM)
Description: Binding constants for compounds of the present invention against the JH2 domain were determined by the following protocol for a KINOMEscan® assay (DiscoveRx). A fusion protein of a partial length construct of human TYK2 (JH2domain-pseudokinase) (amino acids G556 to D888 based on reference sequence NP_003322.3) and the DNA binding domain of NFkB was expressed in transiently transfected HEK293 cells. From these HEK 293 cells, extracts were prepared in M-PER extraction buffer (Pierce) in the presence of Protease Inhibitor Cocktail Complete (Roche) and Phosphatase Inhibitor Cocktail Set II (Merck) per manufacturers' instructions. The TYK2(JH2domain-pseudokinase) fusion protein was labeled with a chimeric double-stranded DNA tag containing the NFkB binding site (5′-[…]-3′) fused to an amplicon for qPCR readout, which was added directly to the expression extract (the final concentration of DNA-tag in the binding reaction is 0.1 nM).
The liganded beads were blocked with excess biotin and washed with blocking buffer (SeaBlock (Pierce), 1% BSA, 0.05% Tween 20, 1 mM DTT) to remove unbound ligand and to reduce nonspecific binding.
Extracts were loaded with DNA-tag and diluted into the binding reaction in a two step process. First extracts were diluted 1:100 in 1× binding buffer (PBS/0.05% Tween 20/10 mM DTT/0.1% BSA/2 μg/ml sonicated salmon sperm DNA) containing 10 nM DNA-tag. This dilution was allowed to equilibrate at room temperature for 15 minutes and then subsequently diluted 1:100 in 1× binding buffer. […] Kds were determined using an 11-point 3-fold compound dilution series with three DMSO control points. […] The compounds were then diluted directly into the assays such that the final concentration of DMSO was 0.9%. All reactions performed in polypropylene 384-well plates. Each was a final volume of 0.02 mL. Assays were incubated with shaking for 1 hour at room temperature. Then the beads were pelleted and washed with wash buffer (lx PBS, 0.05% Tween 20) to remove displaced kinase and test compound. […] The qPCR protocol consisted of a 10 minute hot start at 95° C., followed by 35 cycles of 95° C. for 15 seconds, 60° C. for 1 minute.
Kds were determined using an 11-point 3-fold compound dilution series with three DMSO control points. […] The compounds were then diluted directly into the assays such that the final concentration of DMSO was 0.9%. The Kds were determined using a compound top concentration of 30,000 nM. Kd measurements were performed in duplicate.
Binding constants (Kds) were calculated with a standard dose-response curve using the Hill equation: […]
The Hill Slope was set to −1.

Chain of human TYK2 (JH2domain-pseudokinase) (P29597 556-888): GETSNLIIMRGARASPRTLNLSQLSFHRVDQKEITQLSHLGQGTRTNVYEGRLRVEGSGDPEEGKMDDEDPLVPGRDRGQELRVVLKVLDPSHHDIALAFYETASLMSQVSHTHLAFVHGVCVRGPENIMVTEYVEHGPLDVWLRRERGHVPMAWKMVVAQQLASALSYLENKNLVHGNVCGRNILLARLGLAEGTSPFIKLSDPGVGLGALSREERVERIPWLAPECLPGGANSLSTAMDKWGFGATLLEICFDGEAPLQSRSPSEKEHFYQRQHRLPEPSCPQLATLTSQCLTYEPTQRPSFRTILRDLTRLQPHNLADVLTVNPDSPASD

Row | SMILES | Kd
1 | CNc1cc(Nc2cccn([C@@H]3CC[C@@H]3O)c2=O)nc2c(C(=O)N[C@@H]3CCC[C@@H](OC)C3)cnn12 [Compound I-99, 5-((1-((1R,2S)-2-Hydroxycyclobutyl)-2-oxo-1,2-dihydropyridin-3-yl)amino)-N-((1R,3R)-3-methoxycyclohexyl)-7-(methylamino)pyrazolo[1,5-a]pyrimidine-3-carboxamide] | 0.2 to 1 nM
2 | CNc1cc(Nc2cccn([C@H]3CC[C@H]3O)c2=O)nc2c(C(=O)NC3CCC[C@@H](OC)C3)cnn12 (stereo partly drawn) [Compound I-103, 5-((1-((1S,2R)-2-Hydroxycyclobutyl)-2-oxo-1,2-dihydropyridin-3-yl)amino)-N-((trans-1,3)-3-methoxycyclohexyl)-7-(methylamino)pyrazolo[1,5-a]pyrimidine-3-carboxamide] | 1 to 10 nM
3 | CNc1cc(Nc2cccn([C@H]3CC[C@H]3O)c2=O)nc2c(C(=O)N[C@H]3CCC[C@H](OC)C3)cnn12 [Compound I-105, 5-((1-((1S,2R)-2-Hydroxycyclobutyl)-2-oxo-1,2-dihydropyridin-3-yl)amino)-N-((1S,3S)-3-methoxycyclohexyl)-7-(methylamino)pyrazolo[1,5-a]pyrimidine-3-carboxamide] | 1 to 10 nM
4 | CNc1cc(Nc2cccn(-c3ccccn3)c2=O)nc2c(C(=O)N[C@H]3C[C@H]3F)cnn12 [Compound I-127] | < 0.2 nM
5 | CNc1cc(Nc2cccn([C@H]3C[C@H](F)C3)c2=O)nc2c(C(=O)N[C@@H]3C[C@H]3OC)cnn12 [Compound I-137] | < 0.2 nM
6 | CO[C@@H]1CCC1NC(=O)c1cnn2c(N)cc(Nc3cccn(-c4ccccn4)c3=O)nc12 (stereo partly drawn) [Compound I-245, 7-Amino-N-((trans-1,2)-2-methoxycyclobutyl)-5-((2-oxo-2H-[1,2′-bipyridin]-3-yl)amino)pyrazolo[1,5-a]pyrimidine-3-carboxamide] | < 0.2 nM
7 | CNc1cc(Nc2cccn([C@H]3[C@@H]4COC[C@@H]43)c2=O)nc2c(C(=O)N[C@@H]3CCC3(F)F)cnn12 [Compound I-308] | < 0.2 nM

Now from value to compound:

Row | Kd | SMILES
8 | < 0.2 nM | CNc1cc(Nc2cccn([C@@H]3CC[C@@H]3O)c2=O)nc2c(C(=O)N[C@@H]3CCC[C@@H](OC)C3)cnn12 [Compound I-98, 5-((1-((1R,2S)-2-Hydroxycyclobutyl)-2-oxo-1,2-dihydropyridin-3-yl)amino)-N-((trans-1,3)-3-methoxycyclohexyl)-7-(methylamino)pyrazolo[1,5-a]pyrimidine-3-carboxamide]
9 | 0.2 to 1 nM | CNc1cc(Nc2cccn([C@@H]3CC[C@@H]3O)c2=O)nc2c(C(=O)N[C@H]3CCC[C@H](OC)C3)cnn12 [Compound I-100, 5-((1-((1R,2S)-2-Hydroxycyclobutyl)-2-oxo-1,2-dihydropyridin-3-yl)amino)-N-((1S,3S)-3-methoxycyclohexyl)-7-(methylamino)pyrazolo[1,5-a]pyrimidine-3-carboxamide]
10 | 1 to 10 nM | CNc1cc(Nc2cccn([C@H]3CC[C@H]3O)c2=O)nc2c(C(=O)N[C@@H]3CCC[C@@H](OC)C3)cnn12 [Compound I-104, 5-((1-((1S,2R)-2-Hydroxycyclobutyl)-2-oxo-1,2-dihydropyridin-3-yl)amino)-N-((1R,3R)-3-methoxycyclohexyl)-7-(methylamino)pyrazolo[1,5-a]pyrimidine-3-carboxamide]
11 | > 10 nM | CNc1cc(Nc2cccn(-c3coc(C)n3)c2=O)nc2c(C(=O)NC3CC3)cnn12 [Compound I-121]
12 | > 10 nM | CNc1cc(Nc2cccn(-c3coc(C)n3)c2=O)nc2c(C(=O)N[C@@H]3C[C@@H]3F)cnn12 [Compound I-126]
13 | < 0.2 nM | CNc1cc(Nc2cccn(C3COC3)c2=O)nc2c(C(=O)N[C@H]3CC[C@H]3F)cnn12 [Compound I-161]
14 | < 0.2 nM | CNc1cc(Nc2cccn(-c3ocnc3C)c2=O)nc2c(C(=O)N[C@@H]3CC[C@H]3F)cnn12 [Compound I-187]
15 | < 0.2 nM | CNc1cc(Nc2cccn(C(C)C)c2=O)nc2c(C(=O)N[C@H]3CC[C@]3(C)O)cnn12 [Compound I-340]
16 | > 10 nM | CNc1cc(Nc2ccc(F)n(-c3ccccn3)c2=O)nc2c(C(=O)NC3CC3)cnn12 [Compound I-473]
